According to the supplement of paper PMC10307832:

Assays:
Test in all cases: relative viability (nuclei count vs DMSO), 5 days (fraction); higher = more cells survive
Afatinib + Decitabine = compound: CN(C)C/C=C/C(=O)Nc1cc2c(Nc3ccc(F)c(Cl)c3)ncnc2cc1O[C@H]1CCOC1 [Afatinib] + Nc1ncn([C@H]2C[C@H](O)[C@@H](CO)O2)c(=O)n1 [Decitabine] (partner 2 µM)
Summary of the method: (§1)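 Relative viability equals treated-well nuclei counts divided by vehicle-well nuclei counts. Counts came from 4× images of lung cancer cell lines grown in 1536-well plates for 5 days after pin-tool dosing on the day after seeding. Dosing used one drug alone or a fixed anchor-drug dose plus five library-drug doses (not always all listed) in √10 steps, and values are medians of duplicate plates.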

Afatinib + Linsitinib = compound: CN(C)C/C=C/C(=O)Nc1cc2c(Nc3ccc(F)c(Cl)c3)ncnc2cc1O[C@H]1CCOC1 [Afatinib] + C[C@]1(O)C[C@@H](c2nc(-c3ccc4ccc(-c5ccccc5)nc4c3)c3c(N)nccn32)C1 [Linsitinib] (partner 1 µM)
Summary of the method: as §1

Afatinib + Alpelisib = compound: CN(C)C/C=C/C(=O)Nc1cc2c(Nc3ccc(F)c(Cl)c3)ncnc2cc1O[C@H]1CCOC1 [Afatinib] + Cc1nc(NC(=O)N2CCC[C@H]2C(N)=O)sc1-c1ccnc(C(C)(C)C(F)(F)F)c1 [Alpelisib] (partner 2 µM)
Summary of the method: as §1

Afatinib + Pictilisib = compound: CN(C)C/C=C/C(=O)Nc1cc2c(Nc3ccc(F)c(Cl)c3)ncnc2cc1O[C@H]1CCOC1 [Afatinib] + CS(=O)(=O)N1CCN(Cc2cc3nc(-c4cccc5[nH]ncc45)nc(N4CCOCC4)c3s2)CC1 [Pictilisib] (partner 1 µM)
Summary of the method: as §1

## NCI-H1944
Afatinib + Decitabine; first compound 0.005 µM
  relative viability: 0.423
Afatinib + Decitabine; first compound 0.01581 µM
  relative viability: 0.403
Afatinib + Decitabine; first compound 0.05 µM
  relative viability: 0.419
Afatinib + Decitabine; first compound 0.1581 µM
  relative viability: 0.343
Afatinib + Decitabine; first compound 0.5 µM
  relative viability: 0.344
Afatinib + Linsitinib; first compound 0.005 µM
  relative viability: 1.04
Afatinib + Linsitinib; first compound 0.01581 µM
  relative viability: 0.904
Afatinib + Linsitinib; first compound 0.05 µM
  relative viability: 0.776
Afatinib + Linsitinib; first compound 0.1581 µM
  relative viability: 0.566
Afatinib + Linsitinib; first compound 0.5 µM
  relative viability: 0.571
Afatinib + Alpelisib; first compound 0.005 µM
  relative viability: 0.677
Afatinib + Alpelisib; first compound 0.01581 µM
  relative viability: 0.763
Afatinib + Alpelisib; first compound 0.05 µM
  relative viability: 0.693
Afatinib + Alpelisib; first compound 0.1581 µM
  relative viability: 0.465
Afatinib + Alpelisib; first compound 0.5 µM
  relative viability: 0.518
Afatinib + Pictilisib; first compound 0.005 µM
  relative viability: 0.387
Afatinib + Pictilisib; first compound 0.01581 µM
  relative viability: 0.307
Afatinib + Pictilisib; first compound 0.05 µM
  relative viability: 0.335
Afatinib + Pictilisib; first compound 0.1581 µM
  relative viability: 0.319
Afatinib + Pictilisib; first compound 0.5 µM
  relative viability: 0.335

## HARA
Afatinib + Decitabine; first compound 0.005 µM
  relative viability: 0.548
Afatinib + Decitabine; first compound 0.05 µM
  relative viability: 0.413
Afatinib + Decitabine; first compound 0.1581 µM
  relative viability: 0.325
Afatinib + Decitabine; first compound 0.5 µM
  relative viability: 0.349
Afatinib + Linsitinib; first compound 0.005 µM
  relative viability: 0.481
Afatinib + Linsitinib; first compound 0.01581 µM
  relative viability: 0.803
Afatinib + Linsitinib; first compound 0.05 µM
  relative viability: 0.238
Afatinib + Linsitinib; first compound 0.1581 µM
  relative viability: 0.209
Afatinib + Linsitinib; first compound 0.5 µM
  relative viability: 0.26
Afatinib + Alpelisib; first compound 0.005 µM
  relative viability: 0.45
Afatinib + Alpelisib; first compound 0.01581 µM
  relative viability: 0.652
Afatinib + Alpelisib; first compound 0.05 µM
  relative viability: 0.397
Afatinib + Alpelisib; first compound 0.1581 µM
  relative viability: 0.313
Afatinib + Alpelisib; first compound 0.5 µM
  relative viability: 0.397
Afatinib + Pictilisib; first compound 0.005 µM
  relative viability: 0.429
Afatinib + Pictilisib; first compound 0.01581 µM
  relative viability: 0.331
Afatinib + Pictilisib; first compound 0.05 µM
  relative viability: 0.16
Afatinib + Pictilisib; first compound 0.1581 µM
  relative viability: 0.206
Afatinib + Pictilisib; first compound 0.5 µM
  relative viability: 0.195

## NCI-H2126
Afatinib + Decitabine; first compound 0.005 µM
  relative viability: 0.565
Afatinib + Decitabine; first compound 0.01581 µM
  relative viability: 0.519
Afatinib + Decitabine; first compound 0.05 µM
  relative viability: 0.595
Afatinib + Decitabine; first compound 0.1581 µM
  relative viability: 0.502
Afatinib + Decitabine; first compound 0.5 µM
  relative viability: 0.425
Afatinib + Linsitinib; first compound 0.005 µM
  relative viability: 0.724
Afatinib + Linsitinib; first compound 0.01581 µM
  relative viability: 0.701
Afatinib + Linsitinib; first compound 0.05 µM
  relative viability: 0.583
Afatinib + Linsitinib; first compound 0.1581 µM
  relative viability: 0.465
Afatinib + Linsitinib; first compound 0.5 µM
  relative viability: 0.424
Afatinib + Alpelisib; first compound 0.005 µM
  relative viability: 0.726
Afatinib + Alpelisib; first compound 0.01581 µM
  relative viability: 0.722
Afatinib + Alpelisib; first compound 0.05 µM
  relative viability: 0.653
Afatinib + Alpelisib; first compound 0.1581 µM
  relative viability: 0.504
Afatinib + Alpelisib; first compound 0.5 µM
  relative viability: 0.444
Afatinib + Pictilisib; first compound 0.005 µM
  relative viability: 0.487
Afatinib + Pictilisib; first compound 0.01581 µM
  relative viability: 0.447
Afatinib + Pictilisib; first compound 0.05 µM
  relative viability: 0.36
Afatinib + Pictilisib; first compound 0.1581 µM
  relative viability: 0.436
Afatinib + Pictilisib; first compound 0.5 µM
  relative viability: 0.37

## LXF-289
Afatinib + Decitabine; first compound 0.005 µM
  relative viability: 0.371
Afatinib + Decitabine; first compound 0.01581 µM
  relative viability: 0.356
Afatinib + Decitabine; first compound 0.05 µM
  relative viability: 0.366
Afatinib + Decitabine; first compound 0.1581 µM
  relative viability: 0.351
Afatinib + Decitabine; first compound 0.5 µM
  relative viability: 0.365
Afatinib + Linsitinib; first compound 0.005 µM
  relative viability: 1
Afatinib + Linsitinib; first compound 0.01581 µM
  relative viability: 0.927
Afatinib + Linsitinib; first compound 0.05 µM
  relative viability: 0.947
Afatinib + Linsitinib; first compound 0.1581 µM
  relative viability: 0.851
Afatinib + Linsitinib; first compound 0.5 µM
  relative viability: 0.947
Afatinib + Alpelisib; first compound 0.005 µM
  relative viability: 0.97
Afatinib + Alpelisib; first compound 0.01581 µM
  relative viability: 1.01
Afatinib + Alpelisib; first compound 0.05 µM
  relative viability: 1.02
Afatinib + Alpelisib; first compound 0.1581 µM
  relative viability: 0.919
Afatinib + Alpelisib; first compound 0.5 µM
  relative viability: 0.975
Afatinib + Pictilisib; first compound 0.005 µM
  relative viability: 0.829
Afatinib + Pictilisib; first compound 0.01581 µM
  relative viability: 0.701
Afatinib + Pictilisib; first compound 0.05 µM
  relative viability: 0.695
Afatinib + Pictilisib; first compound 0.1581 µM
  relative viability: 0.706
Afatinib + Pictilisib; first compound 0.5 µM
  relative viability: 0.777

## NCI-H460
Afatinib + Decitabine; first compound 0.005 µM
  relative viability: 0.446
Afatinib + Decitabine; first compound 0.01581 µM
  relative viability: 0.464
Afatinib + Decitabine; first compound 0.05 µM
  relative viability: 0.521
Afatinib + Decitabine; first compound 0.1581 µM
  relative viability: 0.526
Afatinib + Decitabine; first compound 0.5 µM
  relative viability: 0.551
Afatinib + Linsitinib; first compound 0.005 µM
  relative viability: 0.74
Afatinib + Linsitinib; first compound 0.01581 µM
  relative viability: 0.713
Afatinib + Linsitinib; first compound 0.05 µM
  relative viability: 0.905
Afatinib + Linsitinib; first compound 0.1581 µM
  relative viability: 0.866
Afatinib + Linsitinib; first compound 0.5 µM
  relative viability: 0.796
Afatinib + Alpelisib; first compound 0.005 µM
  relative viability: 0.52
Afatinib + Alpelisib; first compound 0.01581 µM
  relative viability: 0.509
Afatinib + Alpelisib; first compound 0.05 µM
  relative viability: 0.484
Afatinib + Alpelisib; first compound 0.1581 µM
  relative viability: 0.543
Afatinib + Alpelisib; first compound 0.5 µM
  relative viability: 0.349
Afatinib + Pictilisib; first compound 0.005 µM
  relative viability: 0.371
Afatinib + Pictilisib; first compound 0.01581 µM
  relative viability: 0.39
Afatinib + Pictilisib; first compound 0.05 µM
  relative viability: 0.339
Afatinib + Pictilisib; first compound 0.1581 µM
  relative viability: 0.35
Afatinib + Pictilisib; first compound 0.5 µM
  relative viability: 0.343

## NCI-H1395
Afatinib + Decitabine; first compound 0.005 µM
  relative viability: 0.773
Afatinib + Decitabine; first compound 0.01581 µM
  relative viability: 0.741
Afatinib + Decitabine; first compound 0.05 µM
  relative viability: 0.744
Afatinib + Decitabine; first compound 0.1581 µM
  relative viability: 0.657
Afatinib + Decitabine; first compound 0.5 µM
  relative viability: 0.672
Afatinib + Linsitinib; first compound 0.005 µM
  relative viability: 1.43
Afatinib + Linsitinib; first compound 0.01581 µM
  relative viability: 1.13
Afatinib + Linsitinib; first compound 0.05 µM
  relative viability: 1.22
Afatinib + Linsitinib; first compound 0.1581 µM
  relative viability: 1.19
Afatinib + Linsitinib; first compound 0.5 µM
  relative viability: 1.13
Afatinib + Alpelisib; first compound 0.005 µM
  relative viability: 1.11
Afatinib + Alpelisib; first compound 0.01581 µM
  relative viability: 1.17
Afatinib + Alpelisib; first compound 0.05 µM
  relative viability: 1.08
Afatinib + Alpelisib; first compound 0.1581 µM
  relative viability: 1.41
Afatinib + Alpelisib; first compound 0.5 µM
  relative viability: 1.29
Afatinib + Pictilisib; first compound 0.005 µM
  relative viability: 0.658
Afatinib + Pictilisib; first compound 0.01581 µM
  relative viability: 0.515
Afatinib + Pictilisib; first compound 0.05 µM
  relative viability: 0.723
Afatinib + Pictilisib; first compound 0.1581 µM
  relative viability: 0.624
Afatinib + Pictilisib; first compound 0.5 µM
  relative viability: 0.551

## NCI-H2009
Afatinib + Decitabine; first compound 0.005 µM
  relative viability: 0.398
Afatinib + Decitabine; first compound 0.01581 µM
  relative viability: 0.383
Afatinib + Decitabine; first compound 0.05 µM
  relative viability: 0.357
Afatinib + Decitabine; first compound 0.1581 µM
  relative viability: 0.366
Afatinib + Decitabine; first compound 0.5 µM
  relative viability: 0.358
Afatinib + Linsitinib; first compound 0.005 µM
  relative viability: 1.23
Afatinib + Linsitinib; first compound 0.01581 µM
  relative viability: 1.14
Afatinib + Linsitinib; first compound 0.05 µM
  relative viability: 1.23
Afatinib + Linsitinib; first compound 0.1581 µM
  relative viability: 1.13
Afatinib + Linsitinib; first compound 0.5 µM
  relative viability: 1.22
Afatinib + Alpelisib; first compound 0.005 µM
  relative viability: 1.23
Afatinib + Alpelisib; first compound 0.01581 µM
  relative viability: 1.15
Afatinib + Alpelisib; first compound 0.05 µM
  relative viability: 1.22
Afatinib + Alpelisib; first compound 0.1581 µM
  relative viability: 1.17
Afatinib + Alpelisib; first compound 0.5 µM
  relative viability: 1.14
Afatinib + Pictilisib; first compound 0.005 µM
  relative viability: 0.875
Afatinib + Pictilisib; first compound 0.01581 µM
  relative viability: 0.822
Afatinib + Pictilisib; first compound 0.05 µM
  relative viability: 0.95
Afatinib + Pictilisib; first compound 0.1581 µM
  relative viability: 0.786
Afatinib + Pictilisib; first compound 0.5 µM
  relative viability: 0.74
